Test results: patent US4136163A, “P-Menthane carboxamides having a physiological cooling effect” (Wilkinson Sword Limited, priority 1971, dated 1979)

How the values were obtained:
cold receptors [1] = assay: Threshold test: minimum quantity of compound on filter paper square on tongue giving a noticeable cooling effect, selected panel of 6 people; type: in vivo, human; conditions: for Threshold (average minimum quantity to produce a noticeable cooling effect): panel of 6 people, cooling reported 50% of the time
From the text: For example, a controlling factor in the onset of cooling effect, its intensity and longevity will be the rate of penetration of the compounds through the epidermis and this will vary in different locations on the human body.
It will also benoted that the described test procedure is done on a statistical basis. This is necessary since sensitivity to these compounds will vary not only from compound to compound and from one part of the body to another, but also from one individual to another. Tests of this nature are commonly used in the testing of the organoleptic properties, e.g. taste, smell etc. of organic and inorganic compounds, see Kirk-Othmer: Encyclopedia of Chemical Technology, 2nd. Ed.
The following test procedure is aimed at determining the minimum quantity of the test compound required to produce a noticeable cooling effect on a person of average sensitivity, this minimum quantity being termed the threshold for that particular compound. The tests are carried out on a selected panel of 6 people of median sensitivity to 1-menthol.
To select a test panel of average sensitivity the following procedure is used. Known quantities of 1-menthol in solution in petroleum ether (bp.40-60) are placed on 5 mm. squares of filter paper, whereafter the solvent is allowed to evaporate. A panel of observers is enrolled and asked to place one impregnated square at a time on the tongue and to report on the presence or absence of a cooling effect. […] Conveniently, one starts with squares containing 2.0 μg. 1-menthol, the amount on each successive square being half that of the preceding square, i.e. the second test square will contain 1.0 μg, the third 0.5 μg and so on. Each quantity is tested on the tongue at least 10 times. In this way, the thresholds to cold receptor stimulus by 1-menthol are determined for each individual of the panel, the threshold for each individual being that amount of 1-menthol for which, in a series of not less than 10 test applications, a cooling effect is reported 50% of the time.
To test the activity of compounds according to this invention, the above procedure is repeated using only the 6 selected panel members of average sensitivity to 1-menthol. The individual thresholds for each test compound on each of the 6 selected panel members are determined and averaged. Those compounds whose average threshold on the select test panel is 100 μg or less are regarded as having cooling activity in accordance with this invention.

cold receptors [2] = assay: Cooling effect of consumer product applied to skin (face, scalp, lips, forehead); type: in vivo, human
Description: Into two separate samples of the base lotion were added 2.0% by weight based on the total composition of N-ethyl-p-menthane-3-carboxamide and N,N-dimethyl-p-menthane-3-carboxamide, each into a different one of the two samples.
To the recipe was added 3.0%, based on the total composition of N-p-menth-3-oylglycine methyl ester. […]
Sodium lauryl ether sulphate, 10 g., was dispersed in 90 g. water in a high speed mill. To the dispersion was added 3.3% by weight of N-(2-hydroxy-n-propyl)-p-menthane-3-carboxamide. […]
The sodium stearate was dissolved by stirring in a warm mixture of the ethanol propylene glycol and water. To the solution was added the perfume and 3.0% of N-(2-hydroxy-n-propyl)-p-menthane-3-carboxamide and the mixture then allowed to solidify into a waxy cake. […]
This Example illustrates now the physiological cooling effect of the compounds of this invention varies according to the locality of application.
In the course of grinding there was added 3.0% of N-n-propyl-p-menthane-3-carboxamide. […]
To this liquid was added 1.0% of N-ethyl-p-menthane-3-carboxamide. A paper tissue was then soaked in the liquid.

| SMILES | Threshold (average minimum quantity to produce a noticeable cooling effect) (cold receptors [1]) | further results |
| --- | --- | --- |
| CC1CCC(C(C)C)C(O)C1 (centres unmarked) [1-menthol, reference compound] |  | average threshold to 1-menthol of selected panel (cold receptors [1]; panel selection criterion, six members): approximately 0.25 μg |
| CC1CCC(C(C)C)C(C(=O)N2CCCC2)C1 (centres unmarked) [--(CH2 H4 --] | 5 µg |  |
| CC1CCC(C(C)C)C(C(=O)N2CCCCC2)C1 (centres unmarked) [--(CH2)5 --] | 6 µg |  |
| CCN(CC)C(=O)C1CC(C)CCC1C(C)C (centres unmarked) [--C2 H5, --C2 H5] | 3 µg |  |
| CCN(CC(C)C)C(=O)C1CC(C)CCC1C(C)C (centres unmarked) [--C2 H5, --C4 H9 (iso)] | 5 µg |  |
| CC1CCC(C(C)C)C(C(=O)N(CCO)C(C)C)C1 (centres unmarked) [--C3 H7 (iso), --CH2 CH2 OH] | 3 µg |  |
| CC1CCC(C(C)C)C(C(=O)N2CCNCC2)C1 (centres unmarked) [--CH2 CH2 NHCH2 CH2 --] | 15 µg |  |
| CC1CCC(C(C)C)C(C(=O)N(C)CCO)C1 (centres unmarked) [--CH3, --CH2 CH2 OH] | 5 µg |  |
| CCOC(=O)CN(C)C(=O)C1CC(C)CCC1C(C)C (centres unmarked) [--CH3, --CH2 CO2 C2 H5] | 0.8 µg |  |
| CC1CCC(C(C)C)C(C(=O)N2C(C)CCC2C)C1 (centres unmarked) [--CH(CH3)CH2 CH2 CH(CH3)--] | 0.5 µg |  |
| CC1CCC(C(C)C)N(C(=O)C2CC(C)CCC2C(C)C)CC1 (centres unmarked) [--CH(iso-C3 H7)CH2 CH2 CH(CH3)CH2 CH2 --] | 50 µg |  |
| CC1CCC(C(C)C)C(C(=O)Nc2cccnc2)C1 (centres unmarked) [H, --3-Pyridyl] | 0.5 µg |  |
| CC1CCC(C(C)C)C(C(=O)NCCCO)C1 (centres unmarked) [H, --(CH2)3 OH, N-3-hydroxypropyl-p-menthane carboxamide] | 3 µg | cooling effect (cold receptors [2]; Example 24 repeated, cleansing tissue, 2.0%, skin, in place of the N-ethyl compound): equally effective results |
| CC1CCC(C(C)C)C(C(=O)NCCCCCCO)C1 (centres unmarked) [H, --(CH2)6 OH] | 1.0 µg |  |
| CC1CCC(C(C)C)C(C(=O)NC2CC2)C1 (centres unmarked) [H, --C3 H5 (cyclo)] | 0.5 µg |  |
| CC1CCC(C(C)C)C(C(=O)NC(C)C)C1 (centres unmarked) [H, --C3 H7 (iso)] | 0.5 µg |  |
| CC(C)CNC(=O)C1CC(C)CCC1C(C)C (centres unmarked) [H, --C4 H9 (iso)] | 0.9 µg |  |
| CCCCNC(=O)C1CC(C)CCC1C(C)C (centres unmarked) [H, --C4 H9 (n)] | 1.4 µg |  |
| CCC(C)NC(=O)C1CC(C)CCC1C(C)C (centres unmarked) [H, --C4 H9 (sec)] | 0.7 µg |  |
| CC1CCC(C(C)C)C(C(=O)NC(C)(C)C)C1 (centres unmarked) [H, --C4 H9 (tert.)] | 0.4 µg |  |
| CC1CCC(C(C)C)C(C(=O)NC2CCCC2)C1 (centres unmarked) [H, --C5 H9 (cyclo)] | 0.5 µg |  |
| CCCCCNC(=O)C1CC(C)CCC1C(C)C (centres unmarked) [H, --C5 H11 (n)] | 3 µg |  |
| Cc1ccc(NC(=O)C2CC(C)CCC2C(C)C)cc1C (centres unmarked) [H, --C6 H3 Me2 (m,p)] | 0.1 µg |  |
| Cc1ccc(NC(=O)C2CC(C)CCC2C(C)C)cc1O (centres unmarked) [H, --C6 H3 Me(p)OH(m)] | 0.1 µg |  |
| CC1CCC(C(C)C)C(C(=O)Nc2ccc(F)cc2)C1 (centres unmarked) [H, --C6 H4 F(p)] | 0.5 µg |  |

| SMILES | Threshold (average minimum quantity to produce a noticeable cooling effect) (cold receptors [1]) | further results |
| --- | --- | --- |
| Cc1ccc(NC(=O)C2CC(C)CCC2C(C)C)cc1 (centres unmarked) [H, --C6 H4 Me(p)] | 0.3 µg |  |
| CC1CCC(C(C)C)C(C(=O)Nc2ccc([N+](=O)[O-])cc2)C1 (centres unmarked) [H, --C6 H4 NO2 (p)] | 0.3 µg |  |
| CC1CCC(C(C)C)C(C(=O)Nc2ccccc2O)C1 (centres unmarked) [H, --C6 H4 OH(o)] | 0.5 µg |  |
| CC1CCC(C(C)C)C(C(=O)Nc2ccc(O)cc2)C1 (centres unmarked) [H, --C6 H4 OH(p)] | 1.4 µg |  |
| COc1ccc(NC(=O)C2CC(C)CCC2C(C)C)cc1 (centres unmarked) [H, --C6 H4 OMe(p)] | 0.1 µg |  |
| CC1CCC(C(C)C)C(C(=O)NC2CCCCC2)C1 (centres unmarked) [H, --C6 H11 (cyclo)] | 1 µg |  |
| CC1CCC(C(C)C)C(C(=O)NC2CCCCCC2)C1 (centres unmarked) [H, --C7 H13 (cyclo)] | 3 µg |  |
| CCCCCCCCCCNC(=O)C1CC(C)CCC1C(C)C (centres unmarked) [H, --C10 H21 (n)] | 10 µg |  |
| CC1CCC(C(C)C)C(C(=O)NCC2CCCCCC2)C1 (centres unmarked) [H, --CH2 (C7 H13 (cyclo)] | 20 µg |  |
| CCOC(=O)CCNC(=O)C1CC(C)CCC1C(C)C (centres unmarked) [H, --CH2 CH2 COOC2 H5] | 1.5 µg |  |
| CC1CCC(C(C)C)C(C(=O)NCCN)C1 (centres unmarked) [H, --CH2 CH2 NH2] | 20 µg |  |
| CC(=O)OCCNC(=O)C1CC(C)CCC1C(C)C (centres unmarked) [H, --CH2 CH2 OCOCH3] | 1.5 µg |  |
| CCOC(=O)CNC(=O)C1CC(C)CCC1C(C)C (centres unmarked) [H, --CH2 COOC2 H5] | 0.2 µg |  |
| CCCOC(=O)CNC(=O)C1CC(C)CCC1C(C)C (centres unmarked) [H, --CH2 COOC3 H7 (n), N-(p-menth-3-oyl)glycine n-propyl ester] | 0.3 µg | cooling effect (cold receptors [2]; Example 22, antipruritic ointment, 0.1%, skin): soothing effect on the skin accompanied by a noticeable cooling effect |
| COC(=O)CNC(=O)C1CC(C)CCC1C(C)C (centres unmarked) [H, --CH2 COOCH3, N-(p-menth-3-oyl)glycine methyl ester] | 0.6 µg | cooling effect (cold receptors [2]; Example 3, toilet water, 3.0%, skin): a cooling effect was clearly noticeable on the skin well after the termination of any cooling effect attributable to the evaporation of the alcoholic carrier; cooling effect (cold receptors [2]; Example 8, hair tonic, 2.0%, scalp): a cooling effect is noticed; cooling effect (cold receptors [2]; Example 21, antiseptic ointment, 0.5%, skin): marked cooling effect |
| CC1CCC(C(C)C)C(C(=O)NCC(=O)O)C1 (centres unmarked) [H, --CH2 COOH, N-(p-menth-3-oyl) glycine] | 16 µg | cooling effect (cold receptors [2]; Example 6, lipstick, 0.6%, lips): a persistent cooling effect is clearly noiticeable |
| CC1CCC(C(C)C)C(C(=O)NCC#CCO)C1 (centres unmarked) [H, --CH2 C≡CCH2 OH] | 17 µg |  |
| CC1CCC(C(C)C)C(C(=O)NCO)C1 (centres unmarked) [H, --CH2 OH] | 12 µg |  |
| CC1CCC(C(C)C)C(C(=O)NCc2ccccc2)C1 (centres unmarked) [H, --CH2 Ph] | 10 µg |  |
| CNC(=O)C1CC(C)CCC1C(C)C (centres unmarked) [H, --CH3, N-methyl-p-menthane-3-carboxamide] | 1.1 µg | cooling effect (cold receptors [2]; Example 4, deodorant composition, 1.3%, skin): definte cooling sensation on the skin |
| CCC(CO)NC(=O)C1CC(C)CCC1C(C)C (centres unmarked) [H, --CH(C2 H5)CH2 OH] | 1.0 µg |  |
| CCOC(=O)CC(C)NC(=O)C1CC(C)CCC1C(C)C (centres unmarked) [H, --CH(CH3)CH2 COOC2 H5] | 0.8 µg |  |
| CCOC(=O)C(C)NC(=O)C1CC(C)CCC1C(C)C (centres unmarked) [H, --CH(CH3)COOC2 H5] | 0.4 µg |  |
| CC1CCC(C(C)C)C(C(=O)NO)C1 (centres unmarked) [H, --OH] | 11 µg |  |
